From patent publication US4073918A, “Phenoxyalkylcarboxylic acid amides of substituted thiazolidinecarboxylic acids and their utilization in medicaments” (Ludwig Merckle KG, priority 1974, dated 1978)

Key:
normal lipemic CFY-rat = assay: Normolipemic test (serum cholesterol and triglycerides); type: in vivo; conditions: 14 days; for Serum Cholesterol / Serum Triglycerides: 24 h after last administration; for Serum Triglycerides, Lowering % / Serum Cholesterol, Lowering %: vs control
Protocol: (§1) In contrast therewith, the inventive compounds having the general formula (I) show based on the normal lipemic as well as the hypercholesteremic rat models, a distinct anti-lipemic and, in particular anti-cholesteremic effect. […] This activity loss of clofibrate on the hyperlipemic demands is also found a number of times in the literature. The antilipemic activity of the inventive compounds, as well as that of clofibrate as the reference substance, was determined on a normal lipemic CFY-rat during an examination time period of 14 days. During this time, the animals received a normal laboratory diet. (Spratt's No. 1).
(§2) After a 4-day acclimatization period the animals orally received the test compound as a suspension in 1% tragacanth-solution, or the vehicle alone (control group). The control-group consisted of 20 animals, while the test groups contained 10 animals. 24 hours after the last administration, blood samples were taken for determining the serum triglycerides and serum cholesterol level.

hypercholesteremic rat = assay: Hypercholesteremic test (serum cholesterol and triglycerides); type: in vivo; conditions: for Serum Cholesterol / Serum Triglycerides: hypercholesteremic rat (2% cholesterol, 1% cholic acid diet); for Serum Cholesterol, Lowering % / Serum Triglycerides, Lowering %: hypercholesteremic rat, vs control
Protocol: as §1, §2
The hypercholesteremic test was carried out on the same animals and under the same examining conditions, as was carried out in the normal lipemic test. The animals received a normal laboratory diet (Spratt's No. 2), having added thereto 2% cholesterol and 1% cholic acid.

[1] = Pharmacological screening for 51 pharmacological parameters; type: in vivo
laboratory rats [2] = conditions: Literature reference; 20160 min; cited from earlier work
[3] = Acute oral toxicity (LD50, Litchfield and Wilcoxon); type: in vivo; conditions: in vivo, rat, suspension in 0.5% aqueous Tween 80, observation 14 days
Protocol: (§3) The acute oral toxicity of the inventive compounds of Examples 18 and 23 was tested on, respectively, five male and female laboratory rats each having a weight of 200 ± 20g. The compounds tested were prepared as suspension in 0.5 %-aqueous Tween 80-solution. The observation time period was 14 days. The determination of the LD50 -values was carried out pursuant to the methods of Litchfield and Wilcoxon.

laboratory rats [4] = assay: as above; type: in vivo; conditions: rat, 14 days, Litchfield and Wilcoxon
Protocol: as §3

[5] = test system: galactosamine-hepatitis-model; conditions: Arzneimittel-Forschung 23, 56, 1973, cited from earlier work
[6] = in vivo; cited from earlier work
mouse = assay: Pharmacological screening, abdominal tone in the mouse; type: in vivo; conditions: 100 mg/kg intraperitoneal

| Compound | Serum Cholesterol (normal lipemic CFY-rat; 100 mg/kg oral) | Serum Triglycerides (normal lipemic CFY-rat; 100 mg/kg oral) | Serum Triglycerides, Lowering % (normal lipemic CFY-rat; 100 mg/kg oral) | Serum Cholesterol (normal lipemic CFY-rat; 300 mg/kg oral) | Serum Triglycerides (normal lipemic CFY-rat; 300 mg/kg oral) | Serum Cholesterol, Lowering % (normal lipemic CFY-rat; 300 mg/kg oral) | Serum Triglycerides, Lowering % (normal lipemic CFY-rat; 300 mg/kg oral) | Serum Cholesterol (hypercholesteremic rat; 100 mg/kg oral) | Serum Triglycerides (hypercholesteremic rat; 100 mg/kg oral) | Serum Cholesterol (hypercholesteremic rat; 300 mg/kg oral) | Serum Triglycerides (hypercholesteremic rat; 300 mg/kg oral) | Serum Cholesterol, Lowering % (hypercholesteremic rat; 100 mg/kg oral) | Serum Cholesterol, Lowering % (hypercholesteremic rat; 300 mg/kg oral) | side effects in pharmacological screening [1] | further results |
| --- | --- | --- | --- | --- | --- | --- | --- | --- | --- | --- | --- | --- | --- | --- | --- |
| CC1(C)SC(C)(C)N(C(=O)COc2ccc(Cl)cc2)C1C(=O)O (centres unmarked) [Example 20, 2,2,5,5-tetramethyl-3-(p-chlorophenoxyacetyl)-thiazolidine-4-carboxylic acid] | 87.8 mg % | 67.6 mg % | 28.4% | 73.0 mg % | 66.0 mg % | 15.3% | 30.1% | 503.9 mg % | 88.1 mg % | 479.6 mg % | 92.2 mg % | 14.8% | 18.9% | – | – |
| CC(C)(Oc1ccc(Cl)cc1)C(=O)NCC1NC(C(=O)O)C(C)(C)S1 (centres unmarked) [Example 17] | 81.8 mg % | 77.3 mg % | 11.2% | 81.5 mg % | 91.2 mg % | 13.1% | – | 353.8 mg % | 85.0 mg % | 296.1 mg % | 96.4 mg % | – | 7.2% | no special side effects were seen | Serum Cholesterol, Lowering % (normal lipemic CFY-rat; 100 mg/kg oral): 12.8%; Serum Triglycerides, Lowering % (hypercholesteremic rat; 100 mg/kg oral): 1.2% |
| CC(C)(Oc1ccc(Cl)cc1)C(=O)N1C(C(=O)O)C(C)(C)SC1(C)C (centres unmarked) [Example 19] | 93.1 mg % | 75.2 mg % | 20.3% | 82.0 mg % | 72.7 mg % | 4.9% | 23.0% | 549.1 mg % | 65.9 mg % | 595.6 mg % | 66.0 mg % | 7.1% | – | – | – |
| CCOC(=O)C(C)(C)Oc1ccc(Cl)cc1 [Clofibrate, 2-(p-chlorophenoxy)-2-methylpropionic acid ethyl ester, reference compound] | – | – | – | 56.1 mg % | 66.5 mg % | 27.0% | 46.3% | – | – | 347.9 mg % | 75.6 mg % | – | 3.0% | – | activity on the hypercholesteremic models (in words) (hypercholesteremic rat; hypercholesteremic models): shows no more activity; Serum Triglycerides, Lowering % (hypercholesteremic rat; 300 mg/kg oral): 12.5%; LD50 (laboratory rats [2]): ~1200 mg/kg |
| CC(C)(Oc1ccc(Cl)cc1)C(=O)NCC1SC(C)(C)C(C(=O)O)N1C(=O)COc1ccc(Cl)cc1 (centres unmarked) [Example 21, 2-2-(p-chlorophenoxy)-2-methyl-propionylamidomethyl!-5,5-dimethyl-3-(p-chlorophenoxyacetyl)-thilazolidine-4-carboxylic acid] | 89.4 mg % | 59.1 mg % | 11.4% | 90.8 mg % | 72.4 mg % | 5.9% | – | 501.2 mg % | 51.0 mg % | 465.1 mg % | 41.3 mg % | – | – | no special side effects were seen | Serum Cholesterol, Lowering % (normal lipemic CFY-rat; 100 mg/kg oral): 7.3%; Serum Triglycerides, Lowering % (hypercholesteremic rat; 100 mg/kg oral): 5.9%; Serum Triglycerides, Lowering % (hypercholesteremic rat; 300 mg/kg oral): 23.9% |
| CC1(C)SC2(CCCCC2)N(C(=O)COc2ccc(Cl)cc2)C1C(=O)O (centres unmarked) [Example 23] | – | – | – | – | – | – | – | – | – | – | – | – | – | – | LD50 at 336 h [3]: 4350 mg/kg; Effective limits (of LD50) (laboratory rats [4]): 3680 to 5130 mg/kg |
| CC(C)(S)[C@@H](N)C(=O)O [D-penicillamine] | – | – | – | – | – | – | – | – | – | – | – | – | – | – | influence on lipid material exchange (in words) [5]: satisfactory influence on lipid material exchange; liver protective effect; release of SH-groups, stimulation of nucleic acids and protein synthesis (in words) ([5]; galactosamine-hepatitis-model): These properties are also shown by D-penicillamine; known side effects [6]: allergic reactions, leukopenia or gastrointestinal disturbances |
| CC(Oc1ccc(Cl)cc1)C(=O)N1C(C(=O)O)C(C)(C)SC1(C)C (centres unmarked) [Example 18, 2,2,5,5-tetramethyl-3-2-(p-chlorophenoxy)propionyl!-thiazolidine-4-carboxylic acid] | 95.8 mg % | 68.7 mg % | 27.2% | 95.3 mg % | 82.5 mg % | – | 12.6% | 412.9 mg % | 71.4 mg % | 470.3 mg % | 72.4 mg % | 30.2% | 20.5% | no special side effects were seen | LD50 at 336 h [3]: > 5000 mg/kg; abdominal tone (mouse): a small reduction of the abdominal tone was observed |
